# Test results published in US20250134887A1, “METHODS OF TREATING PROSTATE CANCER” (AstraZeneca AB, priority 2022, published 2025).
# Test system: patients with mCRPC
# Assay: PROpel (NCT03732820) double-blind randomized phase III trial: efficacy and patient-reported outcomes
# Assay type: in vivo, human
# Text: The primary objective was efficacy as assessed by investigator-assessed imaging-based progression-free survival.
# Patient population. Eligible patients were 18 years of age (or 19 years of age in South Korea) and had histologically or cytologically confirmed prostate adenocarcinoma with at least one documented metastatic lesion on either a bone scan, computed tomography, or magnetic resonance imaging scan. […] Docetaxel during neoadjuvant/adjuvant treatment for localized prostate cancer and the metastatic hormone-sensitive (mHSPC) stage of disease was permitted, as long as no signs of failure or disease progression occurred during or immediately after such treatment. Prior to mCRPC stage, treatment with second-generation antiandrogen agents (except abiraterone) without PSA progression/clinical progression/radiographic progression during treatment was allowed, provided the treatment was stopped at least 12 months before randomisation.
# Trial design and interventions. This was a double-blind, placebo-controlled, phase Ill trial. Eligible patients were randomized (1:1) to treatment with abiraterone acetate (1000 mg once daily) in combination with either olaparib (300 mg twice daily) or placebo. All patients received prednisone or prednisolone (5 mg twice daily) as per the abiraterone acetate label requirement. Randomization was stratified by distant metastasis type (bone only/visceral/other) at baseline and by docetaxel treatment at the mHSPC stage of disease (yes or no). Study treatment continued until objective imaging-based progressive disease assessed by investigator (using Response Evaluation Criteria in Solid Tumors [RECIST 1.1] for soft tissue lesions and Prostate Cancer Working Group-3 [PCWG-3] criteria for bone lesions), unacceptable toxicity, or withdrawal of consent. Following objective disease progression, further treatment options were at the discretion of the investigator. […] Crossover from placebo to receive olaparib in combination with abiraterone acetate was not allowed.
# Endpoints. The primary endpoint was imaging-based progression-free survival or death from any cause in the absence of disease progression. Sensitivity analysis by blinded independent central review and exploratory subgroup analysis of investigator-assessed imaging-based progression-free survival to assess consistency of treatment effect across potential prognostic factors were prespecified. Subgroups included HRRm status.
# A key secondary endpoint was overall survival. Other secondary endpoints included time to first subsequent therapy or death (TFST), time to second progression or death (PFS2) and patient-reported outcomes. Further exploratory endpoints were objective response rate (ORR), prostate-specific antigen (PSA) response rate and time to PSA progression.
# Statistical analysis. Efficacy was analyzed for the intention-to-treat population and safety was analyzed for all patients who received any amount of abiraterone acetate, olaparib, or placebo.
# The first planned interim analysis of the primary endpoint of imaging-based progression-free survival is reported in this example. Imaging-based progression-free survival will be reported subsequently at a second data cutoff. Overall survival will be formally tested at all points, including a third data cutoff.
# With a sample size of 796 patients, the first interim analysis was planned to occur when there had been approximately 379 progression or death events (47.6% maturity), to provide 94.1% power at a one-sided alpha of 0.014 to show a statistically significant difference in imaging-based progression-free survival between the trial arms, assuming a hazard ratio for progression or death of 0.68.
# A multiple testing procedure controlled the overall one-sided type 1 error rate of 2.5%.
# [1] = rPFS investigator assessment, FAS, All patients
# [2] = rPFS, subgroup Age at randomisation: <65 years
# [3] = rPFS, subgroup Age at randomisation: ≥65 years
# [4] = rPFS, subgroup Docetaxel treatment at mHSPC stage
# [5] = rPFS, subgroup HRRm Unknown, ctDNA test
# [6] = rPFS, subgroup HRRm Unknown, tumour tissue test
# [7] = rPFS, subgroup HRRm, ctDNA test (FoundationOne Liquid CDx)
# [8] = rPFS, subgroup HRRm, tumour tissue test (FoundationOne CDx)
# [9] = rPFS, subgroup No docetaxel treatment at mHSPC stage
# [10] = rPFS, subgroup Non-HRRm, ctDNA test
# [11] = rPFS, subgroup Non-HRRm, tumour tissue test
# [12] = rPFS, subgroup Site of distant metastases: Bone only
# [13] = rPFS, subgroup Site of distant metastases: Other
# [14] = rPFS, subgroup Site of distant metastases: Visceral
compound,measurement,setting,value
"CC(=O)O[C@H]1CC[C@@]2(C)C(=CC[C@@H]3[C@@H]2CC[C@]2(C)C(c4cccnc4)=CC[C@@H]32)C1 [abiraterone acetate and placebo, (3β)-17-(3-pyridinyl) androsta-5,16-dien-3-yl acetate]",second progression or death events,"PFS2, number of events",94
same,patients who received a first subsequent therapy,"TFST, number of patients",221
same,Confirmed PSA response,"human, in vivo",69.2%
same,Median time to PSA progression,"human, in vivo",12.0 months
same,median imaging-based progression-free survival by investigator assessment,"intention-to-treat, first interim analysis, data cutoff Jul. 30, 2021",16.6 months
same,Median rPFS,"investigator assessment, FAS, All patients",16.59 months
same,"progression or death events, blinded independent central review",number of events,218
same,"progression or death events, investigator assessment",number of events,226
same,"ORR, number of patients with response",of 161 patients (olaparib arm) / of 160 patients (placebo arm) with measurable disease at baseline,77
same,deaths,"overall survival analysis, number of deaths",121
same,ORR,patients with measurable disease at baseline,48.1%
same,median imaging-based progression-free survival by blinded independent central review,prespecified sensitivity analysis,16.4 months
same,Number of events/total number of patients,[1],226/397
same,Number of events/total number of patients (%),[1],(56.9) %
same,Number of events/total number of patients,[2],59/97
same,Number of events/total number of patients (%),[2],(60.8) %
same,Number of events/total number of patients,[3],167/300
same,Number of events/total number of patients (%),[3],(55.7) %
same,Number of events/total number of patients,[4],56/94
same,Number of events/total number of patients (%),[4],(59.6) %
same,Number of events/total number of patients,[5],13/30
same,Number of events/total number of patients (%),[5],(43.3) %
same,Number of events/total number of patients,[6],76/131
same,Number of events/total number of patients (%),[6],(58.0) %
same,Number of events/total number of patients,[7],66/100
same,Number of events/total number of patients (%),[7],(66.0) %
same,Number of events/total number of patients,[8],37/56
same,Number of events/total number of patients (%),[8],(66.1) %
same,Number of events/total number of patients,[9],170/303
same,Number of events/total number of patients (%),[9],(56.1) %
same,Number of events/total number of patients,[10],147/267
same,Number of events/total number of patients (%),[10],(55.1) %
same,Number of events/total number of patients,[11],113/210
same,Number of events/total number of patients (%),[11],(53.8) %
same,Number of events/total number of patients,[12],102/217
same,Number of events/total number of patients (%),[12],(47.0) %
same,Number of events/total number of patients,[13],84/128
same,Number of events/total number of patients (%),[13],(65.6) %
same,Number of events/total number of patients,[14],40/52
same,Number of events/total number of patients (%),[14],(76.9) %
same,Median rPFS,subgroup Age at randomisation: <65 years,16.36 months
same,Median rPFS,subgroup Age at randomisation: ≥65 years,16.66 months
same,Median rPFS,subgroup Docetaxel treatment at mHSPC stage,13.83 months
same,Median rPFS,"subgroup HRRm Unknown, tumour tissue test",16.39 months
same,Median rPFS,"subgroup HRRm, ctDNA test (FoundationOne Liquid CDx)",13.63 months
same,Median rPFS,"subgroup HRRm, tumour tissue test (FoundationOne CDx)",16.62 months
same,Median rPFS,subgroup No docetaxel treatment at mHSPC stage,16.82 months
same,Median rPFS,"subgroup Non-HRRm, ctDNA test",18.96 months
same,Median rPFS,"subgroup Non-HRRm, tumour tissue test",16.59 months
same,Median rPFS,subgroup Site of distant metastases: Bone only,22.18 months
same,Median rPFS,subgroup Site of distant metastases: Other,13.70 months
same,Median rPFS,subgroup Site of distant metastases: Visceral,10.91 months
